# Several values for one entry are separate records, joined by “and”; a condition that tells them apart may be missing. Identical values can stand only once. Entries after “also recorded” stand apart in the source; their conditions may differ. Like-named read-outs stand apart in the source and are kept apart here.
# Tests used:
# [1] = human plasma, 37° C., incubation 0 hr
# in vitro [2] = conditions: monkey, plasma
# in vitro [3] = conditions: human, plasma
# [4] = cyno plasma, 37° C., incubation 0 hr
# [5] = system: TTX-sensitive Nav channels in mouse DRG neuron; assay type: cell-based; conditions: for potency relative to JzTx-V (more potent): TTX-sensitive current; for 1.x/1.7, partially inactivated: mTTX-S vs hNav1.7, partially inactivated
# hNav1.7 [6] = molecular target: T1, hNav1.7 (Homo sapiens, UniProt Q15858); experiment: cell-based; assay type: cell-based; conditions: for block of hNav1.7 current: 100 pM peptide; for 1.x/1.7, fully non-inactivated: hNav1.7 vs hNav1.7, fully non-inactivated; for 1.x/1.7, partially inactivated: hNav1.7 vs hNav1.7, partially inactivated
# hNav1.3 = hNav1.3 (Homo sapiens, UniProt Q9NY46); assay type: cell-based
# hNav1.5 [7] = molecular target: T2, hNav1.5 (Homo sapiens, UniProt Q14524); experiment: cell-based; conditions: PatchXpress; * = at high concentrations compound would wash off slowly or not at all; read-out: PX hNav1.5 Tonic IC50
# hNav1.8 [8] = molecular target: hNav1.8 (Homo sapiens, UniProt Q9Y5Y9); experiment: cell-based; assay type: cell-based; conditions: WCPC, n=2
# hNav1.8 [9] = experiment: cell-based; assay type: cell-based, human
# hNav1.5 [10] = molecular target: T2, hNav1.5; experiment: cell-based; conditions: IonWorks Quattro; read-out: IC50 Nav1.5
# hNav1.5 [11] = molecular target: T2, hNav1.5; experiment: cell-based; assay type: cell-based
# hNav1.4 [12] = molecular target: T3, hNav1.4 (Homo sapiens, UniProt P35499); assay type: cell-based
# hNav1.4 [13] = molecular target: T3, hNav1.4; experiment: cell-based; conditions: PatchXpress; * = at high concentrations compound would wash off slowly or not at all; read-out: PX hNav1.4 Tonic IC50
# hNav1.7 [14] = molecular target: T1, hNav1.7; experiment: cell-based; conditions: IonWorks Quattro; read-out: IC50 Nav1.7
# male CD-1 mice [15] = conditions: mouse, in vivo
# male CD-1 mice [16] = conditions: mouse, in vivo; remark: listed apart in the source
# male Sprague-Dawley rats = assay type: in vivo, rat; conditions: rat, in vivo
# T3 sequence (P35499 whole entry): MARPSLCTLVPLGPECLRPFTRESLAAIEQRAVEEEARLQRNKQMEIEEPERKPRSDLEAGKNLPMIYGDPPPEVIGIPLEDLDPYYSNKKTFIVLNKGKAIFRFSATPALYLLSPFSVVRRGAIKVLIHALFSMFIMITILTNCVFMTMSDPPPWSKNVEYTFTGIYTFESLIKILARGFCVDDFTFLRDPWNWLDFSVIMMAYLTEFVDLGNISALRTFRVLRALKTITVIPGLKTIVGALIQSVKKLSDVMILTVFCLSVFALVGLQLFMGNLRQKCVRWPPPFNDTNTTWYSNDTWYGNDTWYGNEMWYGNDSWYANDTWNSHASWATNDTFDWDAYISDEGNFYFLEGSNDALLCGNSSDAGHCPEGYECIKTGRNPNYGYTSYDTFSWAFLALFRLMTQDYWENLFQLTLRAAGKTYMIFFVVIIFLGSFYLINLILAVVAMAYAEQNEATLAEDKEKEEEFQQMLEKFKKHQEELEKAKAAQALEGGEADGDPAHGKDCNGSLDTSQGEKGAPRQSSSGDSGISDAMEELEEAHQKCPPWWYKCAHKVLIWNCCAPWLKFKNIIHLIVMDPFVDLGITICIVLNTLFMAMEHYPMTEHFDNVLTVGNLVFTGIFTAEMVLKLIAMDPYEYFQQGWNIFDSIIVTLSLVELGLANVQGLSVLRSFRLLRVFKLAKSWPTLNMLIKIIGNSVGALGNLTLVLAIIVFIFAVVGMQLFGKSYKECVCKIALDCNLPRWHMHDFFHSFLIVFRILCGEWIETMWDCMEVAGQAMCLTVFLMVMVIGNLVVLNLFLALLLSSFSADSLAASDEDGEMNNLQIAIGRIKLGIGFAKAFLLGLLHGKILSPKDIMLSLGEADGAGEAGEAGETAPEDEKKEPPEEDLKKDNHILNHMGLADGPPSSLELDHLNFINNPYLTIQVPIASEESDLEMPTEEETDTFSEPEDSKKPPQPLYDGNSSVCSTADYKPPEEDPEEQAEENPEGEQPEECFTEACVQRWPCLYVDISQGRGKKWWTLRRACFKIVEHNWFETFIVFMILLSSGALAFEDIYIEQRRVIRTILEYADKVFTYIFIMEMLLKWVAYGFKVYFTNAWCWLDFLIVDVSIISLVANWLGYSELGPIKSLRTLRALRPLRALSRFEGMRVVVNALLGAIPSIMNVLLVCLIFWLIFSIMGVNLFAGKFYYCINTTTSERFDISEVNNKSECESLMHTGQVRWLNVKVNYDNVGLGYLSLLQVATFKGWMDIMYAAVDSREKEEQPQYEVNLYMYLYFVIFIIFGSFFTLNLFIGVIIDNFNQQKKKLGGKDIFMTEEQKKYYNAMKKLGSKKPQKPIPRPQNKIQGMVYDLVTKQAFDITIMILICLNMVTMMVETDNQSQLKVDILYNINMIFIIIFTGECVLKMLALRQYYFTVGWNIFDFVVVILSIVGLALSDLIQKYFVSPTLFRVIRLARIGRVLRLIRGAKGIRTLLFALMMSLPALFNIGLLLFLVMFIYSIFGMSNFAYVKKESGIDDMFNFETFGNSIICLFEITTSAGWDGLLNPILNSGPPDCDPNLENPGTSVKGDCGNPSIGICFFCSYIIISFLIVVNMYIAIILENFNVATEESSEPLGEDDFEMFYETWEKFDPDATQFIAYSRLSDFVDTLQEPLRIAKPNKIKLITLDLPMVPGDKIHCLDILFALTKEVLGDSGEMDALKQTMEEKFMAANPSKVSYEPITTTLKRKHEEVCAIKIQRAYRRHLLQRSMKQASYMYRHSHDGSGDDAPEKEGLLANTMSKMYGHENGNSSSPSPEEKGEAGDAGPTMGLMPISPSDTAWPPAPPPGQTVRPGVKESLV
# T2 sequence (Q14524 whole entry): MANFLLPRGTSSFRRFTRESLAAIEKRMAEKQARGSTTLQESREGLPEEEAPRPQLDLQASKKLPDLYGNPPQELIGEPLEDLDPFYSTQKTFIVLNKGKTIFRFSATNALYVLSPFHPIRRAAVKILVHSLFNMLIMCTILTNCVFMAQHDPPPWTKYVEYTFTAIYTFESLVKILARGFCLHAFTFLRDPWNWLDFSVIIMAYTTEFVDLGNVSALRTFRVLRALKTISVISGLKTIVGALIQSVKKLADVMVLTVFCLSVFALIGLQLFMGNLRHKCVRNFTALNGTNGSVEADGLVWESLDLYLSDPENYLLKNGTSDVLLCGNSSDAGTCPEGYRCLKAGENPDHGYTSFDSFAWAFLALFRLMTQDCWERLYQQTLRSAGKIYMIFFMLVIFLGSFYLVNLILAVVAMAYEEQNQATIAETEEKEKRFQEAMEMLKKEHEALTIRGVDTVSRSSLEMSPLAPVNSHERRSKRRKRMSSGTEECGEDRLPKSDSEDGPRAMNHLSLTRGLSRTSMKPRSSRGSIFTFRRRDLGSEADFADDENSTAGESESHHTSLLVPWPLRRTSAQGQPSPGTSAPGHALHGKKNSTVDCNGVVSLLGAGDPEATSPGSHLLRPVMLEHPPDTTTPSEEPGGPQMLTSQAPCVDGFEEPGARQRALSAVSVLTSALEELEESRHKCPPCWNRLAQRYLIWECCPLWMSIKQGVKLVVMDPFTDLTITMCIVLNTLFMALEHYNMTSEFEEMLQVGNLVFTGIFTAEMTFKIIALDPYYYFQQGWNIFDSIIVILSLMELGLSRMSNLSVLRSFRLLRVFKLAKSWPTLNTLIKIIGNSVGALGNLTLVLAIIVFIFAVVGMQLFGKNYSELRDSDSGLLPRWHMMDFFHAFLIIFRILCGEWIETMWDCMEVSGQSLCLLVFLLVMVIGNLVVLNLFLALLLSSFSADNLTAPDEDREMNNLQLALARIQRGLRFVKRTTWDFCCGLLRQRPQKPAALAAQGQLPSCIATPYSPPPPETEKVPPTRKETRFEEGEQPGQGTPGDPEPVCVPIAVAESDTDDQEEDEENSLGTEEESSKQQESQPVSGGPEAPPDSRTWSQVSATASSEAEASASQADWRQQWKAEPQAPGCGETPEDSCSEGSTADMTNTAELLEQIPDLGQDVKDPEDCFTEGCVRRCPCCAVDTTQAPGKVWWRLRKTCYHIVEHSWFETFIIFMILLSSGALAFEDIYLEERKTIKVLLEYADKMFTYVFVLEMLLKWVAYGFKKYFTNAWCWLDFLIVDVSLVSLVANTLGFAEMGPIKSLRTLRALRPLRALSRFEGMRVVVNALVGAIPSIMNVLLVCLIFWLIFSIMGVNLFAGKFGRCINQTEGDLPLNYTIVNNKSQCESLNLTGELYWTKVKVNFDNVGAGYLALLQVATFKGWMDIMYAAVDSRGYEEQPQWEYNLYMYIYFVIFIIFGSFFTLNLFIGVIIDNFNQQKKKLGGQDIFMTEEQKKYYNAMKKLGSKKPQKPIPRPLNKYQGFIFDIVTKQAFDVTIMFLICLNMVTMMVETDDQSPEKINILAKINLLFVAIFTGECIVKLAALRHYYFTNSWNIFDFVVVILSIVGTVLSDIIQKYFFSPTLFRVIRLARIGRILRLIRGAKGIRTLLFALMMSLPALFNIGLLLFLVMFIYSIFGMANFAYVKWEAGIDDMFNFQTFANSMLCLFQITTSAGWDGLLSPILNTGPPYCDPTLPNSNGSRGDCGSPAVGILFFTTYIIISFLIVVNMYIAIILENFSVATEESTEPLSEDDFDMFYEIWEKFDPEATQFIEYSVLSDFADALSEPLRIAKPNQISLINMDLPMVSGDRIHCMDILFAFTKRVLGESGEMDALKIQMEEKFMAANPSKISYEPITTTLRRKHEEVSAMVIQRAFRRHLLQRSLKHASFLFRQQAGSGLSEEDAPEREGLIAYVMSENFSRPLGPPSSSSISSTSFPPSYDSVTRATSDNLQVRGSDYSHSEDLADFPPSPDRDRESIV
smiles,measurement,setting,value
"CC[C@H](C)[C@H](NC(=O)[C@H](CO)NC(=O)[C@H](CCCCN)NC(=O)[C@H](CCCNC(=N)N)NC(=O)[C@@H]1CSSC[C@@H]2NC(=O)[C@H](C)NC(=O)[C@H](CCCNC(=N)N)NC(=O)[C@H](CCCCN)NC(=O)[C@H](CO)NC(=O)[C@H](CC(=O)O)NC(=O)[C@@H]3CSSC[C@H](NC(=O)[C@H](CCC(=O)O)NC(=O)[C@H](CC(C)C)NC(=O)CNC(=O)[C@H](CCC(=O)O)NC(=O)[C@H](CSSC[C@H](NC(=O)[C@@H](N)Cc4ccc(O)cc4)C(=O)N[C@@H](CCC(N)=O)C(=O)N[C@@H](CCCCN)C(=O)N[C@@H](Cc4c[nH]c5ccccc45)C(=O)N[C@@H](CCSC)C(=O)N[C@@H](Cc4c[nH]c5ccccc45)C(=O)N[C@@H]([C@@H](C)O)C(=O)N3)NC2=O)C(=O)N[C@@H](CCCCN)C(=O)N[C@@H](CC(C)C)C(=O)N[C@@H](Cc2c[nH]c3ccccc23)C(=O)N1)C(N)=O [SEQ ID NO: 138, [Glu20;Ser28]JzTx-V(1-29)]",% Peptide Remaining,[1],100%
same,remaining at 2 h,in vitro [2],78%
same,remaining at 4 h,in vitro [2],75%
same,remaining at 6 h,in vitro [2],69%
same,remaining at 8 h,in vitro [2],62%
same,remaining at 24 h,in vitro [2],59%
same,remaining at 2 h,in vitro [3],86%
same,remaining at 4 h,in vitro [3],82%
same,remaining at 6 h,in vitro [3],72%
same,remaining at 8 h,in vitro [3],68%
same,remaining at 24 h,in vitro [3],49%
same,% Peptide Remaining,[4],100%
"C#CC[C@@H]1NC(=O)[C@@H]2CSSC[C@H](NC(=O)[C@H](Cc3ccc(O)cc3)NC(=O)[C@@H](N)CC#N)C(=O)N[C@@H](CCC(N)=O)C(=O)N[C@@H](CCCCN)C(=O)N[C@@H](Cc3c[nH]c4ccccc34)C(=O)N[C@@H](CCCC)C(=O)N[C@@H](Cc3c[nH]c4ccccc34)C(=O)N[C@@H]([C@@H](C)O)C(=O)N[C@H]3CSSC[C@H](NC(=O)[C@H](CCCNC(=N)N)NC(=O)[C@H](CC(C)C)NC(=O)CNC1=O)C(=O)N[C@@H](CCCCN)C(=O)N[C@@H](CC(C)C)C(=O)N[C@@H](Cc1c[nH]c4ccccc14)C(=O)N[C@H](C(=O)N[C@@H](CCCNC(=N)N)C(=O)N[C@@H](CCCCN)C(=O)N[C@@H](CCC(=O)O)C(=O)N[C@H](C(N)=O)[C@@H](C)CC)CSSC[C@H](NC(=O)[C@H](C)NC(=O)[C@H](CCCNC(=N)N)NC(=O)[C@H](CCCCN)NC(=O)[C@H](CO)NC(=O)[C@H](CC(=O)O)NC3=O)C(=O)N2 [SEQ ID NO: 395, CyA-[Nle6,Pra17,Glu28]JzTx-V(1-29)]",block of TTX-sensitive Nav current,"[5]; 300 nM SEQ ID NO:395, held at −77 mV",fully blocked TTX-sensitive Nav current; also recorded: complete inhibition
same,potency relative to JzTx-V (more potent),[5]; mouse DRG neurons,equipotent
"C#CC[C@H](N)C(=O)N[C@@H](Cc1ccc(O)cc1)C(=O)N[C@H]1CSSC[C@@H]2NC(=O)[C@@H]3CSSC[C@@H](C(=O)N[C@@H](CCCNC(=N)N)C(=O)N[C@@H](CCCCN)C(=O)N[C@H](C(=O)N[C@H](C(N)=O)[C@@H](C)CC)[C@@H](C)CC)NC(=O)[C@H](Cc4c[nH]c5ccccc45)NC(=O)[C@H](CC(C)C)NC(=O)[C@H](CCCCN)NC(=O)[C@H](CSSC[C@H](NC(=O)[C@H]([C@@H](C)O)NC(=O)[C@H](Cc4c[nH]c5ccccc45)NC(=O)[C@H](CCCC)NC(=O)[C@H](Cc4c[nH]c5ccccc45)NC(=O)[C@H](CCCCN)NC(=O)[C@H](CCC(N)=O)NC1=O)C(=O)N[C@@H](CC(=O)O)C(=O)N[C@@H](CO)C(=O)N[C@@H](CCCCN)C(=O)N[C@@H](CCCNC(=N)N)C(=O)N[C@@H](C)C(=O)N3)NC(=O)[C@H](CCCNC(=N)N)NC(=O)[C@H](CC(C)C)NC(=O)CNC(=O)[C@H](CCC(=O)O)NC2=O [SEQ ID NO: 425, Pra-[Nle6]JzTx-V]",block of hNav1.7 current,hNav1.7 [6]; held at −77 mV (partially inactivated state),fully blocked Nav1.7 current; also recorded: complete inhibition
same,block of hNav1.7 current,hNav1.7 [6]; held at −140 mV (fully non-inactivated state),fully blocked Nav1.7 current; also recorded: complete inhibition
same,block of TTX-sensitive Nav current,[5],blocked most TTX-sensitive Nav current
same,inhibition of TTX-sensitive sodium current,"[5]; 1 nM peptide (as printed in text), mouse DRG neurons",almost complete inhibition
same,potency relative to JzTx-V (more potent),[5]; mouse DRG neurons,about 3 fold
"NC1=N[C@H](O)[C@H]2[C@H]3O[C@]4(O)O[C@@H]([C@@H](O)[C@@]2(N1)[C@@H]4O)[C@]3(O)CO [TTX, tetrodotoxin, reference compound]",block of TTX-sensitive Nav current,[5],completely blocked TTX-sensitive Nav current
CC[C@H](C)[C@H](NC(=O)[C@@H](NC(=O)[C@H](CCCCN)NC(=O)[C@H](CCCNC(=N)N)NC(=O)[C@@H]1CSSC[C@@H]2NC(=O)[C@H](C)NC(=O)[C@H](CCCNC(=N)N)NC(=O)[C@H](CCCCN)NC(=O)[C@H](CO)NC(=O)[C@H](CC(=O)O)NC(=O)[C@@H]3CSSC[C@H](NC(=O)[C@H](CCCNC(=N)N)NC(=O)[C@H](CC(C)C)NC(=O)CNC(=O)[C@H](CCC(=O)O)NC(=O)[C@H](CSSC[C@H](NC(=O)[C@@H](N)Cc4ccc(O)cc4)C(=O)N[C@@H](CCC(N)=O)C(=O)N[C@@H](CCCCN)C(=O)N[C@@H](Cc4c[nH]c5ccccc45)C(=O)N[C@@H](CCSC)C(=O)N[C@@H](Cc4c[nH]c5ccccc45)C(=O)N[C@@H]([C@@H](C)O)C(=O)N3)NC2=O)C(=O)N[C@@H](CCCCN)C(=O)N[C@@H](CC(C)C)C(=O)N[C@@H](Cc2c[nH]c3ccccc23)C(=O)N1)[C@@H](C)CC)C(N)=O [compound 2],"1.x/1.7, fully non-inactivated",hNav1.7 [6],1
same,"1.x/1.7, partially inactivated",hNav1.7 [6],1
same,"1.x/1.7, fully non-inactivated","[5]; mTTX-S vs hNav1.7, fully non-inactivated",530
same,"1.x/1.7, partially inactivated",[5],111
same,"1.x/1.7, fully non-inactivated","hNav1.3; hNav1.3 vs hNav1.7, fully non-inactivated",99
same,"1.x/1.7, partially inactivated","hNav1.3; hNav1.3 vs hNav1.7, partially inactivated",76
same,IC50,hNav1.5 [7],1600 nM and 2210 nM and 3250 nM
same,IC50,"hNav1.8 [8]; hNav1.8, fully non-inactivated, read-out: Mean IC50, fully non-inactivated",810 nM
same,IC50,"hNav1.8 [8]; hNav1.8, partially inactivated, read-out: Mean IC50, partially inactivated",530 nM
same,"1.x/1.7, fully non-inactivated","hNav1.8 [9]; hNav1.8 vs hNav1.7, fully non-inactivated",5724
same,"1.x/1.7, partially inactivated","hNav1.8 [9]; hNav1.8 vs hNav1.7, partially inactivated",3282
same,IC50,hNav1.5 [10],7200 nM and > 7000 nM
same,IC50,"hNav1.5 [11]; WCPC, hNav1.5, fully non-inactivated, n=2",882 nM
same,"1.x/1.7, fully non-inactivated","hNav1.5 [11]; hNav1.5 vs hNav1.7, fully non-inactivated",6230
same,"1.x/1.7, partially inactivated","hNav1.5 [11]; hNav1.5 vs hNav1.7, partially inactivated",2641
same,"1.x/1.7, fully non-inactivated","hNav1.4 [12]; hNav1.4 vs hNav1.7, fully non-inactivated",75
same,"1.x/1.7, partially inactivated","hNav1.4 [12]; hNav1.4 vs hNav1.7, partially inactivated",58
C#CC[C@H](N)C(=O)N[C@@H](Cc1ccc(O)cc1)C(=O)N[C@H]1CSSC[C@@H]2NC(=O)[C@@H]3CSSC[C@@H](C(=O)N[C@@H](CCCNC(=N)N)C(=O)N[C@@H](CCCCN)C(=O)N[C@H](C(=O)N[C@H](C(N)=O)[C@@H](C)CC)[C@@H](C)CC)NC(=O)[C@H](Cc4c[nH]c5ccccc45)NC(=O)[C@H](CC(C)C)NC(=O)[C@H](CCCCN)NC(=O)[C@H](CSSC[C@H](NC(=O)[C@H]([C@@H](C)O)NC(=O)[C@H](Cc4c[nH]c5ccccc45)NC(=O)[C@H](CCCC)NC(=O)[C@H](Cc4c[nH]c5ccccc45)NC(=O)[C@H](CCCCN)NC(=O)[C@H](CCC(N)=O)NC1=O)C(=O)N[C@@H](CC(=O)O)C(=O)N[C@@H](CO)C(=O)N[C@@H](CCCCN)C(=O)N[C@@H](CCCNC(=N)N)C(=O)N[C@@H](C)C(=O)N3)NC(=O)[C@H](CCCNC(=N)N)NC(=O)[C@H](CC(C)C)NC(=O)CNC(=O)[C@H](CCC(=O)O)NC2=O [compound 425],"1.x/1.7, fully non-inactivated",hNav1.7 [6],1
same,"1.x/1.7, partially inactivated",hNav1.7 [6],1
same,IC50,hNav1.4 [13],4 nM and 2.5 nM
same,IC50,hNav1.7 [14],8 nM and 13 nM
same,"1.x/1.7, partially inactivated",[5],6335
same,IC50,hNav1.5 [7],970 nM and 700 nM
"Cc1cccc(C)c1OCC(C)N (stereo not shown) [mexilitine, reference compound]",thermal latency / thermal hyperalgesia,male CD-1 mice [15],significantly reverse thermal hyperalgesia
CN1CC[C@]23c4c5ccc(O)c4O[C@H]2[C@@H](O)C=C[C@H]3[C@H]1C5 [morphine],"time spent lifting and/or licking the affected paw, second phase (5-40 min)",male CD-1 mice [16],significantly reduce pain response; also recorded: significantly reduced the pain response; also recorded: did significantly reduce
same,"formalin response, second phase (5-40 min)",male Sprague-Dawley rats,significantly reduce pain response; also recorded: significantly reduced

# From patent US9636418B2 (priority 2013, dated 2017)
